Reference: the supplement of paper PMC8837787

What follows are compounds tested on Saccharomyces cerevisiae ABC16-Green Monster (assay: growth inhibition at single dose (up to 150 µM), below the 70% cut-off for dose-response; higher = more potent). Details: 18 h; 30 °C; YPD.
Method in brief: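 Data are given as percent growth inhibition. Log-phase drug-sensitive S. cerevisiae ABC16-Green Monster cells (OD600 0.1–0.2, 200 µl per well in 96-well plates) were treated in biological duplicates with each library compound at a single 150 µM dose, with untreated cultures alongside, and OD600 was measured at 0 h and after 18 h at 30 °C. Compounds falling below 70% in both replicates were not taken to dose-response.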
In the case of `Cc1cccn2c(=O)cc(CN3C(=O)NC(C)(c4ccc(F)cc4)C3=O)nc12` (configuration not stated), the “growth inhibition at single dose” value is reported as < 70%.
`Cc1ccc(O)c(C(=O)NCCc2ccc3c(c2)OCCO3)c1` was tested, and the “growth inhibition at single dose” value was < 70%.
In the case of `CC(C)CN(C(=O)c1ccc(N2CCCC2)c([N+](=O)[O-])c1)c1nc2ccccc2s1`, the “growth inhibition at single dose” value is reported as < 70%.
For `Cc1ccc(C(=O)COC(=O)Cc2n[nH]c(=O)c3ccccc23)s1`, the “growth inhibition at single dose” value was < 70%.
In the case of `CCOC(=O)c1sc(N)c(C#N)c1COC(=O)c1c(CC)noc1C`, the “growth inhibition at single dose” value is reported as < 70%.
`COc1ccc2c(c1)C1(Nc3ccccc3-c3nc4ccccc4n31)C(=O)N2` (configuration not stated) was tested, and the “growth inhibition at single dose” value was < 70%.
For `O=C(CSc1nccn2nc(-c3ccccc3)cc12)Nc1cc(C(F)(F)F)ccc1Cl`, the “growth inhibition at single dose” value was < 70%.
In the case of `Cc1c(C)n(CCN(C)C)c2ncn3nc(-c4ccccc4O)nc3c12`, the “growth inhibition at single dose” value is reported as < 70%.
For `Cc1cc(NCCN2CCCCC2)c2ccc3ccccc3c2n1`, the “growth inhibition at single dose” value was < 70%.
In the case of `CCCCC(O)(c1ccc(Cl)cc1)C(CN1CCOCC1)c1ccc(Cl)cc1` (configuration not stated), the “growth inhibition at single dose” value is reported as < 70%.
For `COc1ccc(C)cc1N1CC(C(=O)Nc2nc3ccccc3[nH]2)CC1=O` (configuration not stated), the “growth inhibition at single dose” value was < 70%.
`CC(C)(C)c1ccc(O)c(CNC2CCCCC2)c1` was tested, and the “growth inhibition at single dose” value was < 70%.
`CCc1nc(COC(=O)c2c(C)nsc2NC)cs1` was tested, and the “growth inhibition at single dose” value was < 70%.
`CCCNC(=O)N1CCC2(CC1)CC(=O)c1cc(C)ccc1O2` was tested, and the “growth inhibition at single dose” value was < 70%.
In the case of `O=C1c2ccc3c4c(ccc(c24)C(=O)N1CCCCO)C(=O)N(CCCCO)C3=O`, the “growth inhibition at single dose” value is reported as < 70%.
In the case of `COC(=O)c1cc(C(=O)OC)cc(-n2c(C)cc(C(=O)Cn3ncc(Cl)c(Cl)c3=O)c2C)c1`, the “growth inhibition at single dose” value is reported as < 70%.
`COc1ccc(-c2cnc3cnc(-c4cccc(OC(C)C)c4)cn23)cc1` was tested, and the “growth inhibition at single dose” value was < 70%.
For `COCCn1c(C)cc(C(=O)CSc2nnc(C)s2)c1C`, the “growth inhibition at single dose” value was < 70%.
For `Cc1ccc(O)c(C(=O)c2c[nH]c(-c3nc4ccccc4[nH]3)c2)c1`, the “growth inhibition at single dose” value was < 70%.
With `O=C(Cc1ccccc1)NC(c1ccc(Cl)cc1)c1c(O)ccc2ccccc12` (configuration not stated) the “growth inhibition at single dose” value was < 70%.
For `CC1(C)OB(O)c2ccc(C3=NOC(c4cc(Cl)c(F)c(Cl)c4)(C(F)(F)F)C3)cc21` (configuration not stated), the “growth inhibition at single dose” value was < 70%.
With `COc1cccc(C2(C)Nc3ccccc3-c3nc4ccccc4n32)c1` (configuration not stated) the “growth inhibition at single dose” value was < 70%.
`CCc1nc2ccc(C(=O)NCc3ccc4c(c3)OCO4)cn2c1N(C)Cc1cccs1` was tested, and the “growth inhibition at single dose” value was < 70%.
For `CCOc1cc2c(cc1OCC)C(c1cc(C)c(O)c(C)c1)NCC2` (configuration not stated), the “growth inhibition at single dose” value was < 70%.
In the case of `Cc1ccc(N2C3c4ccccc4N(S(=O)(=O)c4ccc(C)cc4)C2c2ccccc2N3S(=O)(=O)c2ccc(C)cc2)cc1`, the “growth inhibition at single dose” value is reported as < 70%.
For `O=C(Nc1cc(Cl)cc(Cl)c1)Nc1cc(Cl)cc(Cl)c1`, the “growth inhibition at single dose” value was < 70%.
With `CN(CC(=O)Nc1ccccc1N1CCCC1)Cc1ccc2ccccc2c1` the “growth inhibition at single dose” value was < 70%.
For `N#CC(C(=O)c1cc(S(=O)(=O)N2CCc3ccccc3C2)ccc1Cl)c1ccccn1` (configuration not stated), the “growth inhibition at single dose” value was < 70%.
With `CC(C)(C)c1cc(C(=O)N2CCN(c3nccnc3C#N)CC2)n(Cc2ccccc2)n1` the “growth inhibition at single dose” value was < 70%.
With `CC(C)c1nc(N2CCN(CC(=O)N3CCCC3)CC2)c(C#N)c2c1CCC2` the “growth inhibition at single dose” value was < 70%.
In the case of `Cn1ncc(C#N)c1NC(=O)c1cccc(Oc2ccccc2)c1`, the “growth inhibition at single dose” value is reported as < 70%.
For `CCOC(=O)c1c(C)n(-c2ccc(Cl)cc2)c2ccc(OC(=O)C=Cc3ccccc3)cc12`, the “growth inhibition at single dose” value was < 70%.
`O=C(Nc1ccc(-c2nc3ccccc3[nH]2)cc1)c1ccc(Cl)c(Cl)c1` was tested, and the “growth inhibition at single dose” value was < 70%.
In the case of `O=C(NC(c1ccccc1)c1ccc2cccnc2c1O)c1ccccc1` (configuration not stated), the “growth inhibition at single dose” value is reported as < 70%.
`Cc1nc(NCc2ccco2)c2c(C)c(C)sc2n1` was tested, and the “growth inhibition at single dose” value was < 70%.
`O=C(CSc1nnc(/C=C/c2ccc(F)cc2)[nH]1)N(c1ccccc1)C1CCCCC1` was tested, and the “growth inhibition at single dose” value was < 70%.
For `COc1cc(Nc2ncnc3ccsc23)cc(OC)c1`, the “growth inhibition at single dose” value was < 70%.
For `O=C(NCc1ccco1)C1CCN(S(=O)(=O)c2ccc(Cl)cc2)CC1`, the “growth inhibition at single dose” value was < 70%.
With `Cc1nc2ccccn2c1C(=O)NCc1ccc(Cl)cc1` the “growth inhibition at single dose” value was < 70%.
For `O=C(NCCc1ccn(-c2ccccc2)n1)C1CCCCC1`, the “growth inhibition at single dose” value was < 70%.
For `Oc1ccc2ccccc2c1CNc1nc2ccccc2[nH]1`, the “growth inhibition at single dose” value was < 70%.
`Nc1nc(N)c2c3c(sc2n1)CN(Cc1ccccc1)CC3` was tested, and the “growth inhibition at single dose” value was < 70%.
In the case of `CNC(=O)c1nn(C)c2c1C(C)(C)Cc1cnc(Nc3ccc(N4CCN(C)CC4)cc3)nc1-2`, the “growth inhibition at single dose” value is reported as < 70%.
With `COc1cc2c(cc1NC(=O)C(C)N1CCC(C(N)=O)CC1)oc1ccccc12` (configuration not stated) the “growth inhibition at single dose” value was < 70%.
`Cc1cc(C)n(-c2ccc(NC(=O)C3CCN(Cc4cnc(C)s4)CC3)cc2)n1` was tested, and the “growth inhibition at single dose” value was < 70%.
`Cc1cc(N)c(N)cc1C` was tested, and the “growth inhibition at single dose” value was < 70%.
`O=S(=O)(c1ccc(Cl)cc1)N1CCN(C(=S)NCc2ccco2)CC1` was tested, and the “growth inhibition at single dose” value was < 70%.
With `CCc1ccc(-n2nnnc2-c2cnc(N)nc2-c2ccccc2)cc1` the “growth inhibition at single dose” value was < 70%.
For `CC(=O)c1c(C)[nH]c(C(=O)Nc2ccc3ccccc3n2)c1C`, the “growth inhibition at single dose” value was < 70%.
`O=C1C2=C(Nc3ccccc3SC2c2ccccc2)c2ccccc21` (configuration not stated) was tested, and the “growth inhibition at single dose” value was < 70%.
`CC(NC(C)c1ccc(Cl)cc1)C(=O)Nc1sccc1C(N)=O` (configuration not stated) was tested, and the “growth inhibition at single dose” value was < 70%.
`CC(C)(C)c1ccc(C(=O)Nc2ncccc2O)cc1` was tested, and the “growth inhibition at single dose” value was < 70%.
With `C/N=c1\scc(-c2ccc(OC(F)F)cc2)n1/N=C/c1ccccc1Br` the “growth inhibition at single dose” value was < 70%.
With `Cc1c(CN2CCN(c3ccccn3)CC2)noc1-c1ccc(F)cc1` the “growth inhibition at single dose” value was < 70%.
`CS(=O)(=O)c1cccc(-c2cnc3[nH]cc(-c4ccc(CCC(=O)O)cc4)c3c2)c1` was tested, and the “growth inhibition at single dose” value was < 70%.
For `O=C1CC(O)(C(F)(F)C(F)(F)F)Oc2ccccc21` (configuration not stated), the “growth inhibition at single dose” value was < 70%.
In the case of `CO[C@H]1/C=C/O[C@@]2(C)Oc3c(C)c(O)c4c(O)c(/c(=C/NN5CCN(C)CC5)c(O)c4c3C2=O)=N\C(=O)/C(C)=C\C=C/[C@H](C)[C@H](O)[C@@H](C)[C@@H](O)[C@@H](C)[C@H](OC(C)=O)[C@@H]1C`, the “growth inhibition at single dose” value is reported as < 70%.
`COCCN1COc2c(cc(Cl)c3cccnc23)C1` was tested, and the “growth inhibition at single dose” value was < 70%.
In the case of `CC(C)c1cc(C(=O)Nc2nnc3ccccn23)c2cnn(C(C)C)c2n1`, the “growth inhibition at single dose” value is reported as < 70%.
For `c1ccc(C[C@@H]2CN(c3nccc(Oc4ccc(-n5ccnc5)cc4)n3)CCN2)cc1`, the “growth inhibition at single dose” value was < 70%.
For `Cc1ccc(-c2csc(Nc3ccccn3)n2)c(C)c1`, the “growth inhibition at single dose” value was < 70%.
`CCn1nc(C(=O)NCc2ccc(OC)cc2)c2c1CCN(C(=O)c1cc(C)n[nH]1)C2` was tested, and the “growth inhibition at single dose” value was < 70%.
With `Cc1ccc(Nc2nc(-c3ccccn3)cs2)cc1` the “growth inhibition at single dose” value was < 70%.
In the case of `CCc1c(C)c(=N)c2ccccc2n1C`, the “growth inhibition at single dose” value is reported as < 70%.
With `C[C@H](C(N)=O)N1CCCC[C@H]1c1ccc(OCc2cccc(F)c2)cc1` the “growth inhibition at single dose” value was < 70%.
`O=C1Nc2ccc(Br)cc2C12NCCc1c2[nH]c2ccccc12` (configuration not stated) was tested, and the “growth inhibition at single dose” value was < 70%.
In the case of `Cc1ccc(/C(C#N)=C/c2ccc(N(C)C)cc2)cc1`, the “growth inhibition at single dose” value is reported as < 70%.
`O=C(CSc1ccc2nnc(-c3cccc(F)c3)n2n1)Nc1ccc2c(c1)OCO2` was tested, and the “growth inhibition at single dose” value was < 70%.
In the case of `C=CCn1c(C)cc(C(=O)COC(=O)C(O)(c2ccccc2)c2ccccc2)c1C`, the “growth inhibition at single dose” value is reported as < 70%.
In the case of `Cc1nnc(NC(=O)c2cn(-c3ccccc3)nc2-c2ccccc2C)o1`, the “growth inhibition at single dose” value is reported as < 70%.
For `COc1ccc(-c2cc(NC(=O)c3ccc(F)cc3Cl)ccc2OC)cc1`, the “growth inhibition at single dose” value was < 70%.
In the case of `Cc1ccc(/C=C2\CCc3c2nc2ccccc2c3C(=O)OCC#N)cc1`, the “growth inhibition at single dose” value is reported as < 70%.
For `Nc1ncnc2c1c(Cc1cccc3ccccc13)nn2CC1CCNCC1`, the “growth inhibition at single dose” value was < 70%.
With `Cc1[nH]c(-c2ccc(F)cc2)cc1C(=O)NC1CCN(Cc2ccccc2)CC1` the “growth inhibition at single dose” value was < 70%.
In the case of `c1ccc(Oc2ccc(-c3cncc(-c4ccc5[nH]ccc5c4)n3)cc2)cc1`, the “growth inhibition at single dose” value is reported as < 70%.
With `Cc1cc(C)cc(Nc2cc(C)nc3nc(C(F)(F)F)nn23)c1` the “growth inhibition at single dose” value was < 70%.
`CCS(=O)(=O)c1ncc(Cl)c(C(=O)Nc2ccccc2C(F)(F)F)n1` was tested, and the “growth inhibition at single dose” value was < 70%.
With `Cc1cnc(N2CCN[C@@H](Cc3ccccc3)C2)nc1Oc1ccc(-n2ccnc2)cc1` the “growth inhibition at single dose” value was < 70%.
`CN(C)CCNC(=O)N1CCCN(c2ncnc3cc(-c4ccccc4)sc23)CC1` was tested, and the “growth inhibition at single dose” value was < 70%.
`CN1C=C(c2ccc3ccccc3n2)C(c2c[nH]c3ccccc23)c2ccccc21` (configuration not stated) was tested, and the “growth inhibition at single dose” value was < 70%.
With `CCc1ccc(Nc2cc(C)nc3nc(C)nn23)cc1` the “growth inhibition at single dose” value was < 70%.
In the case of `CCCOCc1cc(CN2CCN(c3cccc(Cl)c3)CC2)c(O)c2ncccc12`, the “growth inhibition at single dose” value is reported as < 70%.
In the case of `CC1Cc2cc(C3=NNC(=NC4CC4)SC3)ccc2N1S(C)(=O)=O` (configuration not stated), the “growth inhibition at single dose” value is reported as < 70%.
For `Cc1cnc(CCNC(=O)c2cc(-c3ccc(Cl)cc3)cs2)[nH]1`, the “growth inhibition at single dose” value was < 70%.
In the case of `N#Cc1ccc(Cc2cnc(NC(=O)c3ccc4ncsc4c3)s2)cc1`, the “growth inhibition at single dose” value is reported as < 70%.
For `COCC(C)n1c(C)cc(C(=O)COC(=O)c2cccn2C)c1C` (configuration not stated), the “growth inhibition at single dose” value was < 70%.
With `CCC(O)c1ccc(Br)cc1NC(=O)c1cccc(Cl)c1` (configuration not stated) the “growth inhibition at single dose” value was < 70%.
For `CCN(CC)CCCN1CCN(C(=O)c2cccc(-c3noc(C(F)(F)F)n3)c2)CC1`, the “growth inhibition at single dose” value was < 70%.
With `Cc1noc(C)c1S(=O)(=O)N(Cc1ccc(C(=O)NC2CC2)cc1)C1CC1` the “growth inhibition at single dose” value was < 70%.
In the case of `CCC(C)NCC(O)(c1ccc(Cl)cc1)c1ccc(Cl)cc1` (configuration not stated), the “growth inhibition at single dose” value is reported as < 70%.
For `CCn1ncc2c(NC3CCOCC3)c(CNC(=O)c3ccnn3C)c(C)nc21`, the “growth inhibition at single dose” value was < 70%.
For `O=C(Nc1ccccc1O)c1ccc(Oc2cccc(C(=O)Nc3ccccc3O)c2)cc1`, the “growth inhibition at single dose” value was < 70%.
